Test results: US20240116951A1, “HETEROCYCLIC COMPOUNDS AND USES THEREOF” (Kumquat Biosciences Inc., priority 2022, published 2024)

Columns and labels:
Type in all cases: binding
[1] = molecular target: T1, KRAS G12S (Homo sapiens, UniProt P01116, G12S); test: HTRF assay of K-Ras G12S interaction with SOS1 (PPI-HTRF); details: 5 nM KRAS G12S, read-out: PPI-HTRF-5 nM KRAS G12S
T1 construct: made in house; host or cells: E. coli, e.g. BL21 (DE3)
Excerpt: (§1) This assay can be also used to assess a selective inhibition or reduction of signaling output of a mutant Ras protein relative to a wildtype, or relative to a different mutant Ras protein. For example, the equilibrium interaction of wildtype Kras or K-Ras mutant (e.g., wildtype or a mutant thereof including those mentioned in Example 4) with SOS1 (e.g., hSOS1) can be assessed as a proxy or an indication for a subject compound's ability to bind and inhibit Ras protein. HTRF assay detects from (i) a fluorescence resonance energy transfer (FRET) donor (e.g., antiGST-Europium) that is bound to GST-tagged K-Ras mutant to (ii) a FRET acceptor (e.g., anti-6His-XL665) bound to a His-tagged hSOS1.
(§2) The assay buffer can contain ˜5 mM HEPES pH 7.4, ˜150 mM NaCl, ˜1 mM DTT, 0.05% BSA and 0.0025% (v/v) Igepal. A Ras working solution is prepared in an assay buffer containing typically a suitable amount of the protein construct (e.g., GST-tagged K-Ras mutant) and the FRET donor (e.g., antiGST-Eu(K) from Cisbio, France). A SOS1 working solution is prepared in an assay buffer containing suitable amount of the protein construct (e.g., His-hSOS1) and the FRET acceptor (e.g., anti-6His-XL665 from Cisbio, France). A suitable amount of the protein construct will depend on the range of activity or range of IC50 values being detected or under investigation. For detecting IC50 within a range of 500 nM, the protein constructs of the same range of molarity can be utilized. […] A fixed volume of DMSO with or without test compound is transferred into a 384-well plate. Ras working solution is added to all wells of the test plate. SOS1 working solution is added to all wells except for those that are subsequently filled the inhibitor control solution. Upon incubation for about 10 minutes or longer, the fluorescence is measured with a M1000Pro plate reader (Tecan) using HTRF detection (excitation 337 nm, emission 1: 620 nm, emission 2: 665 nm). Compounds are tested in duplicates at different concentrations (for example, 10 μM, 2.5 μM, 0.63 μM, 0.16 μM, 0.04 μM, 0.01 μM test compound). The ratiometric data (i.e., emission 2 divided by emission 1) is used to calculate IC50 values against Ras using GraphPad Prism (GraphPad software). Following this general procedure, samples were tested with or without a subject compound disclosed herein including compounds exemplified in Table 1 to assess their abilities to inhibit a mutant K-Ras relative to another mutant K-Ras or wildtype K-Ras. Signaling output measured in terms of IC50 values can be obtained, a ratio of IC50 against one mutant relative to another mutant can be calculated. For instance, a selective reduction of K-Ras G12D signaling output can be evidenced by a ratio greater than one. In particular, a selective reduction of K-Ras G12D signaling relative to K-Ras WT signaling is evidenced as the ratio of IC50 (against K-Ras WT) to IC50 (against K-Ras G12D) is greater than 1.

[2] = molecular target: T2, KRAS G12D (Homo sapiens, UniProt P01116, G12D); test: HTRF assay of K-Ras G12D interaction with SOS1 (PPI-HTRF); details: HTRF, 5 nM KRAS G12D; read-out: PPI-HTRF-5 nM KRAS G12D
T2 construct: made in house; host or cells: E. coli, e.g. BL21 (DE3)
Excerpt: as §1, §2

[3] = molecular target: T3, KRAS WT (Homo sapiens, UniProt P01116); test: HTRF assay of wildtype K-Ras interaction with SOS1 (PPI-HTRF); details: HTRF, 5 nM KRAS WT; read-out: PPI-HTRF-5 nM KRAS WT
T3 construct: made in house; host or cells: E. coli, e.g. BL21 (DE3)
Excerpt: as §1, §2

T2 sequence (P01116 1-188 isoform P01116-2 G12D): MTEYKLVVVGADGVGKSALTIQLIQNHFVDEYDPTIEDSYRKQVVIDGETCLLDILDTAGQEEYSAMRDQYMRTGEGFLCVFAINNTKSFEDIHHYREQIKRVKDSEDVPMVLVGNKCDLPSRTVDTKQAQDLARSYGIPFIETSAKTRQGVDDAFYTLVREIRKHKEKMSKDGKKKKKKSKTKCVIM
T1 sequence (P01116 1-188 isoform P01116-2 G12S): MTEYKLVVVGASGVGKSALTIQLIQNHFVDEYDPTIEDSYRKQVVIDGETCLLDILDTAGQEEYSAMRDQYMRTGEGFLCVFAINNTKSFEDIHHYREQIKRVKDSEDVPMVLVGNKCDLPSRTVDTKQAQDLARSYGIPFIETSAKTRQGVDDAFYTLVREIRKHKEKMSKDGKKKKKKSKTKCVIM
T3 sequence (P01116 1-188 isoform P01116-2): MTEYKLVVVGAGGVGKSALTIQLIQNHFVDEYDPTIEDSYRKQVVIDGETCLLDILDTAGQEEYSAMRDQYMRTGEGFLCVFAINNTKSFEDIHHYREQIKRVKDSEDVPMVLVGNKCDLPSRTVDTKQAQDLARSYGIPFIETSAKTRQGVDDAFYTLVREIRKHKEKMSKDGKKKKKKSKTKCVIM

Nc1nc2c(-c3c(Cl)cc4c(N5CCCC6(CCN6)C5)nc(OC[C@@]56CCCN5C[C@H](F)C6)nc4c3F)ccc(F)c2s1 (stereo partly drawn) [Compound 209, 4-(6-chloro-8-fluoro-2-(((2R,7aS)-2-fluorotetrahydro-1H-pyrrolizin-7a(5H)-yl)methoxy)-4-(1,6-diazaspiro[3.5]nonan-6-yl)quinazolin-7-yl)-7-fluorobenzo[d]thiazol-2-amine] gave an IC50 [1] of under 5 µM.
With N#Cc1c(N)sc2c(F)ccc(-c3c(Cl)cc4c(N5CCC6(CCCCN6C(=O)C6CC6(F)F)C5)nc(OC[C@@]56CCCN5C[C@H](F)C6)nc4c3F)c12 (stereo partly drawn) [Compound 240, 2-amino-4-(6-chloro-4-(6-(2,2-difluorocyclopropane-1-carbonyl)-2,6-diazaspiro[4.5]decan-2-yl)-8-fluoro-2-(((2R,7aS)-2-fluorotetrahydro-1H-pyrrolizin-7a(5H)-yl)methoxy)quinazolin-7-yl)-7-fluorobenzo[b]thiophene-3-carbonitrile] the IC50 [1] was under 5 µM, the IC50 [2] was under 5 µM and the IC50 [3] was under 5 µM.
Compound N#Cc1c(N)sc2c(F)ccc(-c3c(Cl)cc4c(N5CCCC6(CCN6)C5)nc(OC[C@@]56CCCN5C[C@H](F)C6)nc4c3F)c12 (stereo partly drawn) [Compound 260, 2-amino-4-(6-chloro-8-fluoro-2-(((2R,7aS)-2-fluorotetrahydro-1H-pyrrolizin-7a(5H)-yl)methoxy)-4-(1,6-diazaspiro[3.5]nonan-6-yl)quinazolin-7-yl)-7-fluorobenzo[b]thiophene-3-carbonitrile] has an IC50 [1] of under 5 µM.
In the case of N#Cc1c(N)sc2c(F)ccc(-c3c(Cl)cc4c(N5CC6(CCN6C(=O)n6cncn6)CC5COC(F)F)nc(OC[C@@]56CCCN5C[C@H](F)C6)nc4c3F)c12 (stereo partly drawn) [Compound 348, 2-amino-4-(6-chloro-4-(7-((difluoromethoxy)methyl)-1-(1H-1,2,4-triazole-1-carbonyl)-1,6-diazaspiro[3.4]octan-6-yl)-8-fluoro-2-(((2R,7aS)-2-fluorotetrahydro-1H-pyrrolizin-7a(5H)-yl)methoxy)quinazolin-7-yl)-7-fluorobenzo[b]thiophene-3-carbonitrile], the IC50 [1] is reported as under 5 µM.
N#Cc1c(N)sc2c(F)ccc(-c3c(Cl)cc4c(N5CCC6(CCN6C(=O)n6cncn6)C5)nc(OC[C@@]56CCCN5C[C@H](F)C6)nc4c3F)c12 (stereo partly drawn) [Compound 272, 4-(4-(1-(1H-1,2,4-triazole-1-carbonyl)-1,6-diazaspiro[3.4]octan-6-yl)-6-chloro-8-fluoro-2-(((2R,7aS)-2-fluorotetrahydro-1H-pyrrolizin-7a(5H)-yl)methoxy)quinazolin-7-yl)-2-amino-7-fluorobenzo[b]thiophene-3-carbonitrile] showed an IC50 [1] of under 5 µM.
Work on N#CCC1CN(c2nc(OC[C@@]34CCCN3C[C@H](F)C4)nc3c(F)c(-c4ccc(F)c5sc(N)c(C#N)c45)c(Cl)cc23)CC12CCN2C(=O)n1cnc(C(F)F)n1 (stereo partly drawn) [Compound 330, (4R)-2-amino-4-(6-chloro-4-(8-(cyanomethyl)-1-(3-(difluoromethyl)-1H-1,2,4-triazole-1-carbonyl)-1,6-diazaspiro[3.4]octan-6-yl)-8-fluoro-2-(((2R,7aS)-2-fluorotetrahydro-1H-pyrrolizin-7a(5H)-yl)methoxy)quinazolin-7-yl)-7-fluorobenzo[b]thiophene-3-carbonitrile] yielded an IC50 [1] of under 5 µM.
Nc1nc2c(-c3c(Cl)cc4c(N5CC6(CCCCN6)C5)nc(OCC56CCCN5C[C@H](F)C6)nc4c3F)ccc(F)c2s1 (stereo partly drawn) [Compound 220, 4-(6-chloro-8-fluoro-2-(((2R)-2-fluorotetrahydro-1H-pyrrolizin-7a(5H)-yl)methoxy)-4-(2,5-diazaspiro[3.5]nonan-2-yl)quinazolin-7-yl)-7-fluorobenzo[d]thiazol-2-amine] gave an IC50 [2] of under 5 µM and an IC50 [3] of under 5 µM.
Work on N#Cc1c(N)sc2c(F)ccc(-c3c(Cl)cc4c(N5CCCCC6(CCCN6C(=O)n6cncn6)C5)nc(OC[C@@]56CCCN5C[C@H](F)C6)nc4c3F)c12 (stereo partly drawn) [Compound 231, 4-(4-(1-(1H-1,2,4-triazole-1-carbonyl)-1,7-diazaspiro[4.6]undecan-7-yl)-6-chloro-8-fluoro-2-(((2R,7aS)-2-fluorotetrahydro-1H-pyrrolizin-7a(5H)-yl)methoxy)quinazolin-7-yl)-2-amino-7-fluorobenzo[b]thiophene-3-carbonitrile] yielded an IC50 [1] of under 5 µM.
Work on Cc1ncn(C(=O)N2CC[C@]23CCN(c2nc(OC[C@@]45CCCN4C[C@H](F)C5)nc4c(F)c(-c5ccc(F)c6sc(N)c(C#N)c56)c(Cl)cc24)C3)n1 [Compound 250, 2-amino-4-(6-chloro-8-fluoro-2-(((2R,7aS)-2-fluorotetrahydro-1H-pyrrolizin-7a(5H)-yl)methoxy)-4-((S)-1-(3-methyl-1H-1,2,4-triazole-1-carbonyl)-1,6-diazaspiro[3.4]octan-6-yl)quinazolin-7-yl)-7-fluorobenzo[b]thiophene-3-carbonitrile] yielded an IC50 [1] of under 5 µM.
N#Cc1c(N)sc2c(F)ccc(-c3c(Cl)cc4c(N5CCCC6(CCCN6C(=O)n6cncn6)C5)nc(OC[C@@]56CCCN5C[C@H](F)C6)nc4c3F)c12 (stereo partly drawn) [Compound 246, 4-(4-(1-(1H-1,2,4-triazole-1-carbonyl)-1,7-diazaspiro[4.5]decan-7-yl)-6-chloro-8-fluoro-2-(((2R,7aS)-2-fluorotetrahydro-1H-pyrrolizin-7a(5H)-yl)methoxy)quinazolin-7-yl)-2-amino-7-fluorobenzo[b]thiophene-3-carbonitrile] showed an IC50 [1] of under 5 µM.
In the case of C[C@H](Oc1nc(N2CC[C@@]3(CCN3C(=O)n3cncn3)C2)c2cc(Cl)c(-c3ccc(F)c4sc(N)c(C#N)c34)c(F)c2n1)[C@@H]1CCCN1C (single isomer, unassigned) [Compound 301], the IC50 [1] is reported as under 5 µM.
Work on N#Cc1c(N)sc2c(F)ccc(-c3c(Cl)cc4c(N5CC[C@@]6(CCN6C(=O)n6cncn6)C5)nc(OC[C@@]56CCCN5C[C@H](F)C6)nc4c3F)c12 (single isomer, unassigned) [Compound 247] yielded an IC50 [1] of under 5 µM.
Compound N#Cc1c(N)sc2c(F)ccc(-c3c(Cl)cc4c(N5CCCC6(CCCN6)C5)nc(OC[C@@]56CCCN5C[C@H](F)C6)nc4c3F)c12 (stereo partly drawn) [Compound 252, 2-amino-4-(6-chloro-8-fluoro-2-(((2R,7aS)-2-fluorotetrahydro-1H-pyrrolizin-7a(5H)-yl)methoxy)-4-(1,7-diazaspiro[4.5]decan-7-yl)quinazolin-7-yl)-7-fluorobenzo[b]thiophene-3-carbonitrile] has an IC50 [1] of under 5 µM.
In the case of Cc1ncn(C(=O)N2CC[C@@]23CCN(c2nc(OC[C@@]45CCCN4C[C@H](F)C5)nc4c(F)c(-c5ccc(F)c6sc(N)c(C#N)c56)c(Cl)cc24)C3)n1 [Compound 339, 2-amino-4-(6-chloro-8-fluoro-2-(((2R,7aS)-2-fluorotetrahydro-1H-pyrrolizin-7a(5H)-yl)methoxy)-4-((R)-1-(3-methyl-1H-1,2,4-triazole-1-carbonyl)-1,6-diazaspiro[3.4]octan-6-yl)quinazolin-7-yl)-7-fluorobenzo[b]thiophene-3-carbonitrile], the IC50 [1] is reported as under 5 µM.
Nc1nc2c(-c3c(Cl)cc4c(N5CC6(CNCCN6)C5)nc(OC[C@@]56CCCN5C[C@H](F)C6)nc4c3F)ccc(F)c2s1 [Compound 251, 4-(6-chloro-8-fluoro-2-(((2R,7aS)-2-fluorotetrahydro-1H-pyrrolizin-7a(5H)-yl)methoxy)-4-(2,5,8-triazaspiro[3.5]nonan-2-yl)quinazolin-7-yl)-7-fluorobenzo[d]thiazol-2-amine] showed an IC50 [1] of over 5 µM and an IC50 [2] of under 5 µM.
